USRE39591E1, “6-O-substituted ketolides having antibacterial activity” (Abbott Laboratories, priority 1996, dated 2007)

Test system: up to 32 different microorganisms
Assay: in vitro antibacterial activity (MIC), agar dilution on Brain Heart Infusion (BHI) agar with Steers replicator
Assay type: cell-based
Conditions: unit assumed
Summary of the method: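 Agar dilution MIC: twelve successive compound dilutions in BHI agar, spot-inoculated with 1:100 (1:10 for slow growers) organism dilutions by Steers replicator, incubated 35-37° C for 20-24 h. MIC is lowest concentration showing no growth, slight haze or sparse colonies versus drug-free control; erythromycin A as class reference.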

SMILES	MIC (organism code AA) [µg/mL]	MIC (organism code BB) [µg/mL]	MIC (organism code CC) [µg/mL]	MIC (organism code DD) [µg/mL]	MIC (organism code EE) [µg/mL]	MIC (organism code FF) [µg/mL]	MIC (organism code GG) [µg/mL]	MIC (organism code HH) [µg/mL]	MIC (organism code II) [µg/mL]	MIC (organism code JJ) [µg/mL]	MIC (organism code KK) [µg/mL]	MIC (organism code LL) [µg/mL]	MIC (organism code MM) [µg/mL]	MIC (organism code NN) [µg/mL]	MIC (organism code OO) [µg/mL]	MIC (organism code PP) [µg/mL]	MIC (organism code QQ) [µg/mL]	MIC (organism code RR) [µg/mL]	MIC (organism code SS) [µg/mL]	MIC (organism code TT) [µg/mL]	further results
CC[C@H]1OC(=O)[C@H](C)C(=O)[C@H](C)[C@@H](O[C@@H]2O[C@H](C)C[C@H](N(C)C)[C@H]2O)[C@@](C)(OCCNCCCc2cnc3ccccc3c2)C[C@@H](C)C(=O)[C@H](C)[C@H]2NC(=O)O[C@@]21C [Example 225, Compound of Formula (IX): L is CO, T is NH, R is —CH2CH2NHCH2CH2CH2-(3-quinolyl)]	0.2	0.39	> 100	0.39	0.39	0.1	> 100	0.2	0.05	0.01	0.01	0.01	> 100	0.39	0.02	0.1	12.5	0.1	12.5	> 100	MIC (organism code UU): 3.1 µg/mL; MIC (organism code VV): 0.2 µg/mL; MIC (organism code WW): 4 µg/mL; MIC (organism code XX): 0.03 µg/mL; MIC (organism code YY): 0.06 µg/mL; MIC (organism code ZZ): > 128 µg/mL; MIC (organism code ZZA): 2 µg/mL
CC[C@H]1OC(=O)[C@H](C)C(=O)[C@H](C)[C@@H](O[C@@H]2O[C@H](C)C[C@H](N(C)C)[C@H]2O)[C@@](C)(OCCNCc2cnc3ccccc3c2)C[C@@H](C)C(=O)[C@H](C)[C@H]2NC(=O)O[C@@]21C [Example 226, Compound of Formula (IX): L is CO, T is NH, R is —CH2CH2NHCH2(3-quinolyl)]	0.1	0.1	> 100	0.1	0.1	0.1	> 100	0.1	0.05	0.01	0.02	0.01	6.2	0.39	0.02	0.1	6.2	0.2	12.5	> 100	MIC (organism code UU): 9.78 µg/mL; MIC (organism code VV): 0.05 µg/mL; MIC (organism code WW): 2 µg/mL; MIC (organism code XX): 0.03 µg/mL; MIC (organism code YY): 0.03 µg/mL; MIC (organism code ZZ): > 128 µg/mL; MIC (organism code ZZA): 2 µg/mL
CC[C@H]1OC(=O)[C@H](C)C(=O)[C@H](C)[C@@H](O[C@@H]2O[C@H](C)C[C@H](N(C)C)[C@H]2O)[C@@](C)(OCCNCc2ccc3ncccc3c2)C[C@@H](C)C(=O)[C@H](C)[C@H]2NC(=O)O[C@@]21C [Example 227, Compound of Formula (IX): L is CO, T is NH, R is —CH2CH2NHCH2(6-quinolyl)]	0.2	0.2	> 100	0.2	0.2	0.2	> 100	0.2	0.05	≤ 0.005	0.05	0.02	50	0.39	0.05	0.39	6.2	0.1	25	> 100	MIC (organism code UU): 1.56 µg/mL; MIC (organism code VV): 0.05 µg/mL; MIC (organism code WW): 2 µg/mL; MIC (organism code XX): 0.03 µg/mL; MIC (organism code YY): 0.03 µg/mL; MIC (organism code ZZ): > 64 µg/mL; MIC (organism code ZZA): 2 µg/mL
CC[C@H]1OC(=O)[C@H](C)C(=O)[C@H](C)[C@@H](O[C@@H]2O[C@H](C)C[C@H](N(C)C)[C@H]2O)[C@@](C)(OCC=NOc2ccccc2)C[C@@H](C)C(=O)[C@H](C)[C@H]2NC(=O)O[C@@]21C [Example 228, Compound of Formula (IX): L is CO, T is NH, R is —CH2CH═NO(phenyl)]	0.39	0.78	> 100	0.78	0.78	0.78	> 100	0.78	0.1	0.02	≤ 0.005	0.01	25	0.78	0.2	0.39	> 100	0.78	> 100	> 100	MIC (organism code UU): 3.1 µg/mL; MIC (organism code VV): 0.78 µg/mL; MIC (organism code WW): 8 µg/mL; MIC (organism code XX): 0.125 µg/mL; MIC (organism code YY): 0.125 µg/mL; MIC (organism code ZZ): > 128 µg/mL; MIC (organism code ZZA): 1 µg/mL
CC[C@H]1OC(=O)[C@H](C)C(=O)[C@H](C)[C@@H](O[C@@H]2O[C@H](C)C[C@H](N(C)C)[C@H]2O)[C@@](C)(OCC=NOCc2ccccc2)C[C@@H](C)C(=O)[C@H](C)[C@H]2NC(=O)O[C@@]21C [Example 229, Compound of Formula (IX): L is CO, T is NH, R is —CH2CH═NOCH2(phenyl)]	0.2	0.2	> 100	0.2	0.2	0.2	> 100	0.2	0.05	≤ 0.005	0.02	0.01	50	0.2	0.02	0.05	> 100	0.39	> 100	> 100	MIC (organism code UU): 1.56 µg/mL; MIC (organism code VV): 0.2 µg/mL; MIC (organism code WW): 2 µg/mL; MIC (organism code XX): ≤ 0.004 µg/mL; MIC (organism code YY): ≤ 0.004 µg/mL; MIC (organism code ZZ): > 128 µg/mL; MIC (organism code ZZA): 0.125 µg/mL
CC[C@H]1OC(=O)[C@H](C)C(=O)[C@H](C)[C@@H](O[C@@H]2O[C@H](C)C[C@H](N(C)C)[C@H]2O)[C@@](C)(OCC=NOCc2ccc([N+](=O)[O-])cc2)C[C@@H](C)C(=O)[C@H](C)[C@H]2NC(=O)O[C@@]21C [Example 230, Compound of Formula (IX): L is CO, T is NH, R is —CH2CH═NOCH2(4-NO2-phenyl)]	0.1	0.1	> 100	0.1	0.1	0.2	> 100	0.1	0.05	≤ 0.005	≤ 0.005	≤ 0.005	> 100	0.05	0.05	0.2	100	0.39	> 100	> 100	MIC (organism code UU): 0.78 µg/mL; MIC (organism code VV): 0.05 µg/mL; MIC (organism code WW): 2 µg/mL; MIC (organism code XX): 0.03 µg/mL; MIC (organism code YY): 0.015 µg/mL; MIC (organism code ZZ): 128 µg/mL; MIC (organism code ZZA): 0.25 µg/mL
CC[C@H]1OC(=O)[C@H](C)C(=O)[C@H](C)[C@@H](O[C@@H]2O[C@H](C)C[C@H](N(C)C)[C@H]2O)[C@@](C)(OCC=NOCc2ccnc3ccccc23)C[C@@H](C)C(=O)[C@H](C)[C@H]2NC(=O)O[C@@]21C [Example 231, Compound of Formula (IX): L is CO, T is NH, R is —CH2CH═NOCH2(4-quinolyl)]	0.1	0.1	> 100	0.1	0.1	0.05	> 100	0.2	0.02	0.02	0.02	0.02	100	0.1	0.02	0.1	100	0.39	100	> 100	MIC (organism code UU): 0.78 µg/mL; MIC (organism code VV): 0.05 µg/mL; MIC (organism code WW): 2 µg/mL; MIC (organism code XX): 0.03 µg/mL; MIC (organism code YY): 0.03 µg/mL; MIC (organism code ZZ): > 128 µg/mL; MIC (organism code ZZA): 0.5 µg/mL
CC[C@H]1OC(=O)[C@H](C)C(=O)[C@H](C)[C@@H](O[C@@H]2O[C@H](C)C[C@H](N(C)C)[C@H]2O)[C@@](C)(OCC=NOCc2ccc3ccccc3n2)C[C@@H](C)C(=O)[C@H](C)[C@H]2NC(=O)O[C@@]21C [Example 232, Compound of Formula (IX): L is CO, T is NH, R is —CH2CH═NOCH2(2-quinolyl)]	0.1	0.1	> 100	0.2	0.2	0.1	> 100	0.2	0.02	0.02	0.02	0.02	> 100	0.2	0.02	0.2	25	0.39	> 100	> 100	MIC (organism code UU): 0.39 µg/mL; MIC (organism code VV): 0.05 µg/mL; MIC (organism code WW): 2 µg/mL; MIC (organism code XX): 0.03 µg/mL; MIC (organism code YY): 0.03 µg/mL; MIC (organism code ZZ): > 128 µg/mL; MIC (organism code ZZA): 0.5 µg/mL
CC[C@H]1OC(=O)[C@H](C)C(=O)[C@H](C)[C@@H](O[C@@H]2O[C@H](C)C[C@H](N(C)C)[C@H]2O)[C@@](C)(OCC=NOCc2cnc3ccccc3c2)C[C@@H](C)C(=O)[C@H](C)[C@H]2NC(=O)O[C@@]21C [Example 233, Compound of Formula (IX): L is CO, T is NH, R is —CH2CH═NOCH2(3-quinolyl)]	0.1	0.1	> 100	0.2	0.2	0.1	> 100	0.2	0.05	0.02	0.02	0.02	100	0.1	0.02	0.3	50	0.39	50	> 100	MIC (organism code UU): 0.78 µg/mL; MIC (organism code VV): 0.05 µg/mL; MIC (organism code WW): 2 µg/mL; MIC (organism code XX): 0.03 µg/mL; MIC (organism code YY): 0.03 µg/mL; MIC (organism code ZZ): 64 µg/mL; MIC (organism code ZZA): 0.25 µg/mL
